The text below walks through data of patent US8067394B2, “Synthesis and biological activities of new tricyclic-bis-enones (TBEs)” (Trustees of Dartmouth College, priority 2006, dated 2011).

Each structure is given as a SMILES string. Entries after “also recorded” stand apart in the source; their conditions may differ.

Experiment [1] deals with U937 human leukemia cells. Kind of experiment: Proliferation of U937 human leukemia cells (Coulter counter). It counts as cell-based. To be noted: FIG. 1; treated 3-4 days. On the procedure:
(§1) FIG. 1. TBEs inhibit proliferation of RMPI 8226 human myeloma cells and U937 human leukemia cells. Cells were treated with TBEs and triterpenoids for 3-4 days and counted by Coulter counter. […] CDDO is presently in clinical trial for treatment of acute myelogenous leukemia. TP-235 is the imidazolide derivative of CDDO.
(§2) Cells were treated with triterpenoids and TBEs for 3-4 days and counted by Coulter counter. […] CDDO is presently in clinical trial for treatment of acute myelogenous leukemia. TP-235 is the imidazolide derivative of CDDO.

Experiment [2] deals with NO production in RAW cells. Put plainly: Inhibition of NO production in RAW cells stimulated with interferon-γ. It counts as cell-based, mouse.
Experiment [3] deals with HO-1. Kind of experiment: Induction of HO-1 in RAW cells (Western blot). Type of experiment: cell-based, mouse. The settings on record: FIG. 9; 30-300 nM, 24 hours. (In general: A western blot detects proteins with antibodies after separation by electrophoresis.)
Experiment [4] relates to U937 cells. Put plainly: Apoptosis in U937 cells (Annexin V). It counts as cell-based, human. To be noted: FIG. 8, 24 hours. On the procedure: FIG. 8. Induction of apoptosis in U937 cells by TBEs. Cells were treated with TBEs and triterpenoids for 24 hours.
Cells were treated for 24 hours.

In experiment [5] the test system is heme oxygenase-1. Put plainly: Induction of heme oxygenase-1 in U937 cells (Western blot). Type of experiment: cell-based, human. To be noted: FIG. 2; 0.1-1 μM, 7 hours. The protocol: FIG. 2. […] Cells were incubated with TBEs and triterpenoids (0.1-1 μM) for 7 hours. Total cell lysates were analyzed by SDS-PAGE, probed with an HO-1 antibody, and developed by ECL. […] None of the other TBEs that were tested provided significant induction of heme oxygenase.
Cells were incubated with triterpenoids or TBEs (0.1-1 μM) for 7 hours. Total cell lysates were analyzed by SDS-PAGE, probed with an HO-1 antibody, and developed by ECL. […] None of the other TBEs that were tested provided significant induction of heme oxygenase.

Experiment [6] concerns CD11b expression in U937 cells. Put plainly: CD11b expression in U937 cells (FACS). Type of experiment: cell-based, human. To be noted: FIG. 4; 10-100 nM, 4 days. The protocol: FIG. 4. TBE-31 induces CD11b expression in U937 cells. Cells were incubated with CDDO-Im or TBE-31 (10-100 nM) for 4 days. CD11b expression was measured by FACS analysis. Induction of CD11b is a marker of leukemia cell differentiation.
Cells were incubated with CDDO-Im or TBE-31 (10-100 nM) for 4 days. CD11b expression was measured by FACS analysis. Induction of CD11b is a marker of leukemia cell differentiation.

The test system of experiment [7] is heme oxygenase-1. Put plainly: Induction of heme oxygenase-1 in liver of CD-1 mice after gavage. Type of experiment: in vivo. On the procedure: FIG. 3. […] CD-1 mice (2 per group) were gavaged with TBEs or CDDO-Im in DMSO. After 6 h, livers were harvested and homogenized. Lysates were separated by SDS-PAGE, probed with HO-1 antibodies, and developed by ECL.
FIG. 11. […] Male CD-1 mice (3 per group) were gavaged with 1 μmol TBEs, CDDO or CDDO-Im in DMSO. Six hours later, livers were harvested and homogenized. Lysates were separated by SDS-PAGE, probed with HO-1 antibodies, and developed by ECL.
CD-1 mice (2 per group) were gavaged with TBEs or CDDO-Im in DMSO. After 6 h, livers were harvested and homogenized. Lysates were separated by SDS-PAGE, probed with HO-1 antibodies, and developed by ECL.

In experiment [8] the test system is Jurkat cells. Kind of experiment: Proliferation of Jurkat cells (Coulter counter). It counts as cell-based. To be noted: FIG. 6; 3-4 days. The protocol:
FIG. 6. TBEs inhibit proliferation of Jurkat cells. Cells were treated with TBEs and triterpenoids for 3-4 days and counted by Coulter counter. […] Thus, it is to be expected that TBEs may have useful activities in regulation of lymphocyte, as well as macrophage, function.
Cells were treated with TBEs for 3-4 days and counted by Coulter counter.

Experiment [9] concerns aflatoxin-induced tumorigenesis. Details: species or system F344 rats. To be noted: rat, in vivo.
The subject of experiment [10] is A549 human lung cancer cells. Put plainly: Apoptosis in A549 human lung cancer cells. To be noted: FIG. 7; 24 h. It counts as cell-based. The protocol: FIG. 7. TBE-31 induces apoptosis in A549 human lung cancer cells. Cells were treated with TBE-31 for 24 h. A549 is a classic human lung cancer cell line.
Cells were treated for 24 h. A549 is a classic human lung cancer cell line.

Experiment [11] concerns RMPI 8226 human myeloma cells. Kind of experiment: Proliferation of RMPI 8226 human myeloma cells (Coulter counter). It counts as cell-based. The settings on record: FIG. 1; treated 3-4 days. The protocol:
as §1, §2

Experiment [12] concerns heme oxygenase-1. Put plainly: Induction of heme oxygenase-1 in stomach of CD-1 mice after gavage. Type of experiment: in vivo. The settings on record: FIG. 12; male CD-1 mice, 1 μmol by gavage in DMSO, six hours. The source says:
FIG. 12. […] Male CD-1 mice (3 per group) were gavaged with 1 μmol TBEs, CDDO or CDDO-Im in DMSO. Six hours later, stomachs were harvested and homogenized. Lysates were separated by SDS-PAGE, probed with HO-1 antibodies, and developed by ECL.

The subject of experiment [13] is iNOS. Put plainly: Inhibition of iNOS induction in RAW cells stimulated with IFN-γ (Western blot). Type of experiment: cell-based, mouse. To be noted: FIG. 5; IFNg 10 ng/ml, 24 hours.

What is called IC50 is the midpoint of a concentration-inhibition curve. Regarding `C#CC12C=C(C#N)C(=O)C=C1C1(C)C=C(C#N)C(=O)C(C)(C)C1CC2` (racemic) [TBE-31, 10a-ethynyl-4b,8,8-trimethyl-3,7-dioxo-3,4b,7,8,8a,9,10,10a-octahydrophenanthrene-2,6-dicarbonitrile], the “Inhibition of proliferation of U937 human leukemia cells” value in experiment [1] was “by far the most potent; also recorded: more potent than CDDO”. For the same molecule, the IC50 in experiment [2] (Mus musculus, Table 5, C-8a functionalized TBE-9 analogs, stimulated with interferon-γ, read-out: IC50 (nM), NO production in RAW cells) was 1 nM. Also, the “Potency for inhibition of NO production in RAW cells (in words)” value in experiment [2] (RAW cells, interferon-γ) is “extremely potent at one nanomolar concentrations; also recorded: higher than CDDO and equal to TP-225”. For the same molecule, in experiment [3], the “Induction of HO-1 in RAW cells” value was “higher inducer than CDDO-Im”. The “Induction of apoptosis in U937 cells” value in [4] is on record as “most active of the TBEs; also recorded: markedly more active than CDDO (TP-151)”. Besides, the “Induction of heme oxygenase-1 in U937 cells” value in experiment [5] was “potent inducer of heme oxygenase; also recorded: markedly more potent than TP-151 (CDDO), and almost as potent as TP-235”. The “Induction of CD11b expression in U937 cells” value in experiment [6] is “strongly induces CD11b at 100 nM; also recorded: comparable to that of CDDO-Im at 10 and 30 nM; also recorded: more potent than CDDO-Im at 100 nM”. The “Induction of heme oxygenase-1 in liver in vivo” value in experiment [7] (FIG. 3, CD-1 mice, gavage in DMSO, livers after 6 h) is reported as “orally active agent; also recorded: comparable to that found with CDDO-Imidazolide”. The “Induction of heme oxygenase-1 in liver” value in [7] (FIG. 11, male CD-1 mice, 1 μmol by gavage in DMSO, six hours) is “potent inducer of heme oxygenase-1 in liver”. Besides, the “Inhibition of proliferation of Jurkat cells” value in experiment [8] is on record as “extremely active, more so than CDDO (TP-151)”. Further, the “Formation of preneoplastic (GST-P positive) foci in liver” value in experiment [9] was “reduces the formation of preneoplastic foci”. The “Induction of apoptosis in A549 cells” value in [10] was “can induce both early and late apoptosis”. For the same molecule, in experiment [11], the “Inhibition of proliferation of RMPI 8226 human myeloma cells” value was “by far the most potent; also recorded: equivalent to that of CDDO itself (TP-151)”. In experiment [12], the “Induction of heme oxygenase-1 in stomach” value is “induces heme oxygenase-1 in stomach”. Moreover, the “Suppression of induction of iNOS in RAW 264.7 cells” value in [13] was “potent suppressor of induction of iNOS; also recorded: significantly more potent than CDDO, and almost as potent as CDDO-Imidazolide”.
